How the values were obtained:
[1] = system: A375 melanoma cells (B-Raf V600E); assay: A375 cell growth inhibition (ATPlite); format: cell-based; conditions: Homo sapiens, A-375, 72 h; A375, 3 days incubation
Protocol: (§1) Compounds are assessed in a variety of cell based assays. For example human cell lines with B-Raf V600E mutation (A375 melanoma, SKMEL3 melanoma, and COL0205 colon adenocarcinoma), as well as tumorigenic cell lines with wild-type B-RAF (SW620 colon adenocarcinoma) or with Ras mutations (SKMEL2 melanoma and IPC298 melanoma). Similar assays may be used to assess additional tumorigenic cell lines with Ras mutations, including, but not limited to, M202, M207, M243, M244, M296, S117, HCT116, HCT15, DLD1, MiaPaCa, A549, NCI-H23, NCI-H460, HOP62, MDA-MB231, Hs-578T, HL60, MOLT-4, and CCRF-CEM.
(§2) On day 1, cells are counted, then centrifuged in a conical tube for 5 minutes at 1000 rpm. The supernatant is removed and cells are re-suspended as follows: • SW620 (ATCC catalog #CCL-27): resuspend in Leibovitz's L-15 medium, 2 mM L-glutamine, 10% fetal bovine serum to 6×10^4 cells/mL. • A375 (ATCC catalog #CRL-1619): resuspend in Dulbecco's modified Eagle's medium, 4 mM L-glutamine, 4.5 g/L D-glucose, 10% fetal bovine serum to 6×10^4 cells/mL. • COL0205 (ATCC catalog #CCL-222): resuspend in RPMI 1640, 2 mM L-glutamine, 1.5 g/L sodium bicarbonate, 4.5 g/L D-glucose, 10 mM HEPES, 1.0 mM sodium pyruvate, 10% fetal bovine serum to 6×10^4 cells/mL. • SKMEL2 (ATCC catalog #HTB-68): resuspend in Minimum Eagle essential medium, 2 mM L-glutamine, 1.5 g/L sodium bicarbonate, 0.1 mM non-essential amino acids, 1.0 mM sodium pyruvate, 10% fetal bovine serum to 6×10^4 cells/mL. • SKMEL3 (ATCC catalog #HTB-69): resuspend in McCoy's 5A medium, 1.5 mM L-glutamine, 15% fetal bovine serum to 6×10^4 cells/mL. • IPC298 (DSMZ catalog #ACC 251): resuspend in RPMI 1640, 2 mM L-glutamine, 10% fetal bovine serum to 6×10^4 cells/mL.
(§3) The cells are plated, 50 μL in each well of a 96-well dish (Corning 3610) and incubated at 37° C. in 5% CO2 overnight, cells plated to a final concentration of cells as follows:
(§4) On day 2, compound at a maximum concentration of 5 mM is serially diluted 1:3 for a total of 8 point titration with DMSO as a control. A 1 μL aliquot of each dilution point and control is added to 249 μL growth media and 50 μL is added to a well containing cells, providing 10 μM compound at the maximum concentration point. The cells are incubated for 3 days at 37° C. in 5% CO2.
(§5) On day 5, ATPlite 1 step Luminescence Assay System (Perkin Elmer #6016739) is brought to room temperature along with the cell cultures. ATPlite is added 25 μL to each well, shake for 2 minutes, and the cells are incubated at room temperature for 10 minutes, then luminescence is read on Safire reader. The measured luminescence correlates directly with cell number, such that the reading as a function of compound concentration is used to determine the IC50 value.
(§6) It is understood that the results of these assays may vary as assay conditions are varied. Inhibition levels determined under the conditions described herein represent a relative activity for the compounds tested under the specific conditions employed. The cell based assays are likely to show variability due to the complexity of the system and the sensitivity thereof to any changes in the assay conditions. […] Results for compounds that are tested and show substantially no inhibition below the highest tested concentration are represented as “-” in the tables below. In some instances, the compounds were not tested in all of the assays, or assay results were not valid, as indicated by NA in the tables below.

[2] = system: SW620 colon adenocarcinoma cells (wild-type B-RAF); assay: SW620 cell growth inhibition (ATPlite); format: cell-based; conditions: Homo sapiens, SW-620, 72 h; SW620, 3 days incubation
Protocol: as §1, §2, §3, §4, §5, §6

[3] = system: COLO205 colon adenocarcinoma cells (B-Raf V600E); assay: COLO205 cell growth inhibition (ATPlite); format: cell-based; conditions: Homo sapiens, COLO 205, 72 h; COLO205, 3 days incubation
Protocol: as §1, §2, §3, §4, §5, §6

[4] = system: SKMEL2 melanoma cells (Ras mutation); assay: SKMEL2 cell growth inhibition (ATPlite); format: cell-based; conditions: Homo sapiens, SK-MEL-2, 72 h; SKMEL2, 3 days incubation
Protocol: as §1, §2, §3
SKMEL2: 2,000 cells per well.
as §4, §5, §6

B-Raf = B-Raf (Homo sapiens, UniProt P15056); assay: B-Raf biochemical kinase inhibition (AlphaScreen, biotin-MEK1 substrate); conditions: 100 μM ATP
Chain of B-Raf (P15056 whole entry): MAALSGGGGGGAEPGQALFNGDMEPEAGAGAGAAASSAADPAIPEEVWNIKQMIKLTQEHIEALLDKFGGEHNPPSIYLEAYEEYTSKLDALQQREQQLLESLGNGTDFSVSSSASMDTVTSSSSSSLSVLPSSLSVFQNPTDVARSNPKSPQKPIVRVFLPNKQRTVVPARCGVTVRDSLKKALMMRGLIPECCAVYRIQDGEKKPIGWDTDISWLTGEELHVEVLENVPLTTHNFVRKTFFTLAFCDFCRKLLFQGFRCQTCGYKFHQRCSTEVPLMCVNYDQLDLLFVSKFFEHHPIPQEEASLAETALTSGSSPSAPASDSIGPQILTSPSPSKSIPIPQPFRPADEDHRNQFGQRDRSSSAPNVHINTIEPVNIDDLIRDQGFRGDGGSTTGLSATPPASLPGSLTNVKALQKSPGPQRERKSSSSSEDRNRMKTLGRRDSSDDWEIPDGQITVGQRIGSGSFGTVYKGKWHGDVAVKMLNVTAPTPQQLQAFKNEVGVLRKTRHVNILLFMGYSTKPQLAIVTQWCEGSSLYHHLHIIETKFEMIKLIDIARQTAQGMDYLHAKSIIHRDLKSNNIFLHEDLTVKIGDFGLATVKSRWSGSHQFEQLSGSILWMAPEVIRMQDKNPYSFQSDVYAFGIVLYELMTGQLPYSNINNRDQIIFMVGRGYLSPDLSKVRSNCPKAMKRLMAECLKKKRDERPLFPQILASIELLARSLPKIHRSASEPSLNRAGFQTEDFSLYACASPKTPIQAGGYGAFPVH
Protocol: (§7) Compounds to be tested are diluted in dimethyl sulfoxide to a concentration of 0.1 mM. These are serially diluted 15 μL into 30 μL of dimethyl sulfoxide seven times in 96 well plates for a total of 8 dilution points, and for each dilution point 1 μL is added to a well of an assay plate. […] The reaction is started with addition of 10 μL of 200 μM ATP (i.e. final 100 μM ATP). […] The plates are incubated for 3 hours at room temperature and read on Envision reader (Perkin Elmer). […] The signal vs. compound concentration is used to determine the IC50.

B-Raf V600E = B-Raf V600E (Homo sapiens, UniProt P15056, V600E); assay: B-Raf V600E biochemical kinase inhibition (AlphaScreen, biotin-MEK1 substrate); conditions: 100 μM ATP
Chain of B-Raf V600E (P15056 whole entry V600E): as the sequence (P15056 whole entry) above, with V600E counted along it
Protocol: as §7

[5] = Relative solubility by turbidity in aqueous buffers of varying pH; format: physicochemical
Protocol: As an indication of relative solubility, the turbidity of compounds in aqueous solutions is assessed. To assess possible compound properties in different physiological compartments, such as stomach, intestine, and blood, a series of aqueous buffers with varying pH is used. Thus each compound is diluted into four different physiologically relevant buffers and solution turbidity is measured by spectrophotometry.
Compounds are dissolved at a concentration of 25 mM in dimethyl sulfoxide, then serially diluted 1:1 into a 96 well plate, diluting 10 times in pure dimethyl sulfoxide, with the final well of each row a dimethyl sulfoxide blank. In an assay plate, 99 μL of appropriate buffer is added to each well, and 1 μL of each sample dilution is added to the buffer, achieving a range of final total concentrations in aqueous solutions having different pH. The buffers used are Simulated Gastric Fluid (SGF-pH 1.5) 0.5M NaCl, pH 1.5; Simulated Intestinal fluid (SIF-pH 4.5 and pH 6.8) 0.05M NaH2PO4, pH 4.5 and 6.8; and Hepes Buffer (HEPES-pH 7.4) 10 mM HEPES, 150 mM NaCl, pH 7.4. Control compounds pyrene, estriol and propranolol HCl are also assessed. Plates are spun and then mixed for 1 minute, and the absorbance is read using a Tecan Safire II to read wavelengths in the visible range (490, 535, and 650 nm) at four locations per well, reflecting the degree of turbidity present. The average optical density for each wavelength in each well is graphed vs. compound concentration, and the concentration at which the curve crosses a threshold O.D. of 0.01 for each wavelength is reported as the endpoint turbidity assay result. The average of the three wavelengths is used to compare turbidity of compounds. Compounds are considered to have low solubility if the threshold concentration is <31.3 04, moderate solubility if the threshold concentration is 31.3 μM to 250 μM, and high solubility if the threshold concentration is >250 μM.

CYP2C19 = CYP2C19 (Homo sapiens, UniProt P33261); assay: CYP2C19 inhibition (fluorescent substrate); format: in vitro ADME; conditions: CYP2C19, CEC substrate; read-out: Cyp IC50 2C19
Chain of CYP2C19 (P33261 whole entry): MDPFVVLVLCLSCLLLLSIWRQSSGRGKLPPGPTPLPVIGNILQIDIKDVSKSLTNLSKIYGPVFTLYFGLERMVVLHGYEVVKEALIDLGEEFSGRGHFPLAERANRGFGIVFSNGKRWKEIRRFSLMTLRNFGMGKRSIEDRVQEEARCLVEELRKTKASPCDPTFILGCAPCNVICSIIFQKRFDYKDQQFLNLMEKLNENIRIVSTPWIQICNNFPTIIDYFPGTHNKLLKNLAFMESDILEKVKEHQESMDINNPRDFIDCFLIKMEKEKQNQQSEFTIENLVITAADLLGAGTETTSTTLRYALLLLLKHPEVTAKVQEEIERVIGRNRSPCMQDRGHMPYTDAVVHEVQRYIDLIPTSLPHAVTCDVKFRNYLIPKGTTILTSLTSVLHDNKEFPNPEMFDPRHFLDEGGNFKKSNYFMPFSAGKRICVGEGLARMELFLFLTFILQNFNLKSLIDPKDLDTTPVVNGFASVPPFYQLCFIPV
Protocol: (§8) CYP (Cytochrome P450) enzymes are the major drug metabolizing enzymes present in the liver. The inhibition of CYP enzyme activity (IC50) for each of CYP1A2, CYP2C19, CYP2C9, CYP2D6, CYP3A4(BFC) and CYP3A4(BQ) is determined for compounds, where inhibition of metabolism of a known substrate leads to a decrease in the fluorescence of the metabolized product. The fluorescence of the product is monitored as a function of compound concentration.
(§9) Compounds are dissolved in dimethyl sulfoxide to a concentration of 100 mM. These are diluted 1 μL into 82 μL of acetonitrile. […] These are then serially diluted 1:1 (160 μL to 160 μL co-factor mix) for a total of 10 points. A 10 μL aliquot of this final mixture is dispensed into 384 well assay plates and incubated for 10 minutes at 37° C. […] Assay plates are incubated at 37° C. […] The signal versus compound concentration is used to determine the IC50. The enzymes and substrates for this assay are obtained from BD Biosciences.

c-Raf-1 = c-Raf-1 (Homo sapiens, UniProt P04049); assay: c-Raf-1 biochemical kinase inhibition (AlphaScreen, biotin-MEK1 substrate); conditions: 100 μM ATP
Chain of c-Raf-1 (P04049 whole entry): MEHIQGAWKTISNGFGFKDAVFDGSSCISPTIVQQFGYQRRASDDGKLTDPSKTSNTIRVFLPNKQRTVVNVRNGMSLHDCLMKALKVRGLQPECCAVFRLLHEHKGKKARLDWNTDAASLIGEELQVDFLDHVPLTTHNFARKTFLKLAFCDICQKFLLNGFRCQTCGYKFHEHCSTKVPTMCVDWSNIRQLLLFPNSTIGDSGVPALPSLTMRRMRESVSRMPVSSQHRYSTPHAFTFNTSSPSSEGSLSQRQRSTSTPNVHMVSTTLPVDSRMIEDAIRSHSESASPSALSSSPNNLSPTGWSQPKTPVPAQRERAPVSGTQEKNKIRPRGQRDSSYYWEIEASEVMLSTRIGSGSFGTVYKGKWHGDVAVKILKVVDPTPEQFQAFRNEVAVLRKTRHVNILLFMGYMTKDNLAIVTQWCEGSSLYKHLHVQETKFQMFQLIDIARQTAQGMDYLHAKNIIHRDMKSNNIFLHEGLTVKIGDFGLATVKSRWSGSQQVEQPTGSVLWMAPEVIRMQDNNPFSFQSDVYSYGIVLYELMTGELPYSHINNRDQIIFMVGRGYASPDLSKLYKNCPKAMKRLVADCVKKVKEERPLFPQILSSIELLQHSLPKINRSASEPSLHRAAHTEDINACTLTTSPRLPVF
Protocol: as §7

CYP2D6 = CYP2D6 (Homo sapiens, UniProt P10635); assay: CYP2D6 inhibition (fluorescent substrate); format: in vitro ADME; conditions: CYP2D6, AMMC substrate; read-out: Cyp IC50 2D6
Chain of CYP2D6 (P10635 whole entry): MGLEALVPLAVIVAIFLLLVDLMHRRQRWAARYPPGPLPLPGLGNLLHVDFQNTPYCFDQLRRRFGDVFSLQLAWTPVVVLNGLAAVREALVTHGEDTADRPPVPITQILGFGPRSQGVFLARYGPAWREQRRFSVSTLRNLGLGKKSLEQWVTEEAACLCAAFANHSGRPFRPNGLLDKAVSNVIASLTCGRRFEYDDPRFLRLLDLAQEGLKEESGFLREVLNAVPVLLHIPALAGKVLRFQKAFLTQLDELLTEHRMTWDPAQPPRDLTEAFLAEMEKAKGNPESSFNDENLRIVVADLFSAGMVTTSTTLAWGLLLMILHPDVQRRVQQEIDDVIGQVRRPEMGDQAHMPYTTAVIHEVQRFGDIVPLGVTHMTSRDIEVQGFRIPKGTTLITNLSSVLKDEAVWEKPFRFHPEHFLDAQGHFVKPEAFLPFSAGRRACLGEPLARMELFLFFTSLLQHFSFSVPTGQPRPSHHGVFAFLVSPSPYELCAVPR
Protocol: as §8, §9

CYP3A4(BFC) = CYP3A4(BFC) (Homo sapiens, UniProt P08684); assay: CYP3A4(BFC) inhibition (fluorescent substrate); format: in vitro ADME; conditions: read-out: Cyp IC50 3A4(BFC)
Chain of CYP3A4(BFC) (P08684 whole entry): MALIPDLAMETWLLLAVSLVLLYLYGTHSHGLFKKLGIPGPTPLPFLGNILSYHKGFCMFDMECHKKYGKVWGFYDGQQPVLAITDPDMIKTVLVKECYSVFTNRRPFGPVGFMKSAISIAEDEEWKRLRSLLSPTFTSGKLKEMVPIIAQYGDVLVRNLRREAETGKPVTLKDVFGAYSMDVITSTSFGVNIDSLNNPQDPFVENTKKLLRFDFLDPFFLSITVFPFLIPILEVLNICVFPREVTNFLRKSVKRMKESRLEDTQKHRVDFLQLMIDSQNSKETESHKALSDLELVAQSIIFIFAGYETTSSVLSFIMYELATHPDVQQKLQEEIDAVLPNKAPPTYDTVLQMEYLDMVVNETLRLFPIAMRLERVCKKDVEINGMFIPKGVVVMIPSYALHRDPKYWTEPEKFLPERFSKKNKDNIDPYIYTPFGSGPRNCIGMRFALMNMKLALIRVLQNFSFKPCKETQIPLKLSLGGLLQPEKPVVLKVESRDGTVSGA
Protocol: as §9, with “CYP (Cytochrome P450) enzymes are the major drug metabolizing enzymes present in the liver. The inhibition of CYP enzyme activity (IC50) for each of CYP1A2, CYP2C19, CYP2C9, CYP2D6, CYP3A4(BFC) and CYP3A4(BQ) is determined for compounds, where inhibition of metabolism of a known substrate leads to a decrease in the fluorescence of the metabolized product. The fluorescence of the product is monitored as a function of compound concentration. Compounds” for “Compounds”

CYP2C9 = CYP2C9 (Homo sapiens, UniProt P11712); assay: CYP2C9 inhibition (fluorescent substrate); format: in vitro ADME; conditions: CYP2C9, MFC substrate; read-out: Cyp IC50 2C9
Chain of CYP2C9 (P11712 whole entry): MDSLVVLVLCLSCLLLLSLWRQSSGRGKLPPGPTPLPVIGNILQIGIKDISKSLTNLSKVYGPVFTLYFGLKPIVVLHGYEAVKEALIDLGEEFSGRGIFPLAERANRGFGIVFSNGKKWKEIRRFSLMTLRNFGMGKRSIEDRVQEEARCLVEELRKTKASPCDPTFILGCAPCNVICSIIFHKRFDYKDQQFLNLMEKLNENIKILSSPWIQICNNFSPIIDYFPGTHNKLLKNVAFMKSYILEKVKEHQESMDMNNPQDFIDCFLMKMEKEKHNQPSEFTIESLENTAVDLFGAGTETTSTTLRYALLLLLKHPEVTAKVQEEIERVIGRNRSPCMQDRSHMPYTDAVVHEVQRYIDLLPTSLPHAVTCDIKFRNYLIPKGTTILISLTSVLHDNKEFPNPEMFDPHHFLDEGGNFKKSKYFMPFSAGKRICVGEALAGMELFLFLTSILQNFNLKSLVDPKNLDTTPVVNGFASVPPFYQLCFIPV
Protocol: as §8, §9

CYP3A4(BQ) = CYP3A4(BQ) (Homo sapiens, UniProt P08684); assay: CYP3A4(BQ) inhibition (fluorescent substrate); format: in vitro ADME; conditions: read-out: Cyp IC50 3A4(BQ)
Chain of CYP3A4(BQ) (P08684 whole entry): as the sequence (P08684 whole entry) above
Protocol: as §9, with “CYP (Cytochrome P450) enzymes are the major drug metabolizing enzymes present in the liver. The inhibition of CYP enzyme activity (IC50) for each of CYP1A2, CYP2C19, CYP2C9, CYP2D6, CYP3A4(BFC) and CYP3A4(BQ) is determined for compounds, where inhibition of metabolism of a known substrate leads to a decrease in the fluorescence of the metabolized product. The fluorescence of the product is monitored as a function of compound concentration. Compounds” for “Compounds”

CYP1A2 = molecular target: T1, CYP1A2 (Homo sapiens, UniProt P05177); assay: CYP1A2 inhibition (fluorescent substrate); format: in vitro ADME; conditions: CYP1A2, CEC substrate; read-out: Cyp IC50 1A2
T1 sequence (P05177 1-516): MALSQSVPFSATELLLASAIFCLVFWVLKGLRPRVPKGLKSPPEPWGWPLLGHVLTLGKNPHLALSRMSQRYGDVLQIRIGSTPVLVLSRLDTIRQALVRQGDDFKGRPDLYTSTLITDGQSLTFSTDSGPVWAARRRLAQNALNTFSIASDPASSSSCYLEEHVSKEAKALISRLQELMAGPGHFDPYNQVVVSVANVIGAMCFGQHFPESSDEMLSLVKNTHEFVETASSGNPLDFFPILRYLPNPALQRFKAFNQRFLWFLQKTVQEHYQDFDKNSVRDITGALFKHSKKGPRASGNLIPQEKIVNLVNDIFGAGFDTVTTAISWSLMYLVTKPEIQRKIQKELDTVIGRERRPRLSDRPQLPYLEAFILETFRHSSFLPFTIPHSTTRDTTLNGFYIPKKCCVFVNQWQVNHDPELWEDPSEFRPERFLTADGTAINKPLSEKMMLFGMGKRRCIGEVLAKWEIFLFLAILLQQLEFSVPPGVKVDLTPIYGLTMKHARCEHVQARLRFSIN
Protocol: as §8, §9

IC50 [1] [µM] | IC50 [2] [µM] | IC50 [3] [µM] | IC50 [4] [µM] | IC50 (B-Raf) [nM] | IC50 (B-Raf V600E) [nM] | IC50 (CYP2C19) [µM] | IC50 (c-Raf-1) [nM] | IC50 (CYP2D6) [µM] | IC50 (CYP3A4(BFC)) [µM] | IC50 (CYP2C9) [µM] | IC50 (CYP3A4(BQ)) [µM] | IC50 (CYP1A2) [µM] | SMILES | turbidity threshold (L, M, H) 7.4 ([5]; HEPES pH 7.4) | turbidity threshold (L, M, H) 4.5 ([5]; SIF pH 4.5) | turbidity threshold (L, M, H) 6.8 ([5]; SIF pH 6.8) | turbidity threshold (L, M, H) 1.4 ([5]; buffer pH 1.4 (SGF))
< 5 | > 10 | < 10 | > 10 |  |  |  |  |  |  |  |  |  | O=C(c1c(F)ccc(NS(=O)(=O)c2cccnc2)c1F)c1c[nH]c2nccc(Cl)c12 [P-2074, Pyridine-3-sulfonic acid [3-(4-chloro-1H-pyrrolo[2,3-b]pyridine-3-carbonyl)-2,4-difluoro-phenyl]-amide] |  |  |  | 
< 1 | > 10 |  |  | < 10 | < 10 |  |  |  |  |  |  |  | CCCS(=O)(=O)Nc1ccc(F)c(C(=O)c2c[nH]c3ncc(-c4cnc(OCCCN(C)C)nc4)cc23)c1F [P-2203, Propane-1-sulfonic acid (3-{5-[2-(3-dimethylamino-propoxy)-pyrimidin-5-yl]-1H-pyrrolo[2,3-b]pyridine-3-carbonyl}-2,4-difluoro-phenyl)-amide] |  |  |  | 
< 10 | > 10 |  | > 10 |  |  |  |  |  |  |  |  |  | N#Cc1cnc2[nH]cc(C(=O)c3cccc(NS(=O)(=O)c4cccnc4)c3F)c2c1 [P-2086, Pyridine-3-sulfonic acid [3-(5-cyano-1H-pyrrolo[2,3-b]pyridine-3-carbonyl)-2-fluoro-phenyl]-amide] | H (high solubility if the threshold concentration is >250 μM) | M (moderate solubility if the threshold concentration is 31.3 μM to 250 μM) | M (moderate solubility if the threshold concentration is 31.3 μM to 250 μM) | M (moderate solubility if the threshold concentration is 31.3 μM to 250 μM)
 |  |  |  | < 10 | < 10 | > 10 | < 10 | > 10 | > 10 | > 10 | > 10 | > 10 | CCCS(=O)(=O)Nc1ccc(F)c(C(=O)c2c[nH]c3ncc(-c4ccc(S(=O)(=O)C(C)C)cc4)cc23)c1F [P-2223, Propane-1-sulfonic acid (2,4-difluoro-3-{5-[4-(propane-2-sulfonyl)-phenyl]-1H-pyrrolo[2,3-b]pyridine-3-carbonyl}-phenyl)-amide] |  |  |  | 

— US8198273B2, “Compounds and methods for kinase modulation, and indications therefor” (Plexxikon Inc., priority 2009, dated 2012)
